Source: ChEMBL document CHEMBL1201862, “PubChem BioAssay data set” (2004)
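Tested at 5 concentrations; 48 h exposure; 96-well plates; endpoints linearly interpolated, else capped at highest concentration. GI50: concentration for 50% inhibition of growth.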 Calls of active or inactive are those of the source. Rule as the data show it: active = GI50 up to about 1.1 µM and inactive = higher.

Tests used:
Test in all cases: growth of human tumour cells (NCI), 48 h
HOP-92 = system: HOP-92
IGROV-1 = system: IGROV-1
UACC-62 = system: UACC-62
UO-31 = system: UO-31
LOX IMVI = system: LOX IMVI
OVCAR-4 = system: OVCAR-4
COLO 205 = system: COLO 205
NCI-H23 = system: NCI-H23
M14 = system: M14
NCI-H226 = system: NCI-H226
SK-MEL-28 = system: SK-MEL-28
U-251 = system: U-251
SK-MEL-5 = system: SK-MEL-5
MDA-MB-435 = system: MDA-MB-435
SF-295 = system: SF-295
HL-60 = system: HL-60
ACHN = system: ACHN
MDA-MB-231 = system: MDA-MB-231
HOP-62 = system: HOP-62
SNB-75 = system: SNB-75

Measured: GI50

COC(=O)c1c(C#N)c(N)nc2c1CCC2
inactive: HOP-92 > 100 µM | IGROV-1 > 100 µM | UACC-62 > 100 µM | UO-31 69.7 µM | LOX IMVI > 100 µM | OVCAR-4 93.3 µM | COLO 205 > 100 µM | NCI-H23 > 100 µM | M14 > 100 µM | NCI-H226 > 100 µM | SK-MEL-28 > 100 µM | U-251 > 100 µM | SK-MEL-5 > 100 µM | MDA-MB-435 > 100 µM | SF-295 > 100 µM | HL-60 > 100 µM | ACHN > 100 µM | MDA-MB-231 > 100 µM | HOP-62 > 100 µM

CN(N=O)C(=O)N[C@H]1C(O)O[C@H](CO)[C@@H](O)[C@@H]1O (some centres not stated)
inactive: HOP-92 548 µM | IGROV-1 618 µM | UACC-62 550 µM | UO-31 658 µM | OVCAR-4 590 µM | COLO 205 596 µM | NCI-H23 614 µM | M14 > 750 µM | NCI-H226 596 µM | SK-MEL-28 611 µM | U-251 593 µM | SK-MEL-5 413 µM | MDA-MB-435 515 µM | SF-295 589 µM | HL-60 499 µM | ACHN > 750 µM | MDA-MB-231 > 750 µM | SNB-75 484 µM | HOP-62 568 µM

O=C(O)c1ccc(CNCc2ccccc2)cc1
inactive: HOP-92 > 100 µM | IGROV-1 > 100 µM | UACC-62 > 100 µM | UO-31 > 100 µM | LOX IMVI > 100 µM | OVCAR-4 > 100 µM | COLO 205 > 100 µM | NCI-H23 > 100 µM | M14 > 100 µM | NCI-H226 > 100 µM | SK-MEL-28 > 100 µM | U-251 > 100 µM | SK-MEL-5 > 100 µM | MDA-MB-435 > 100 µM | SF-295 > 100 µM | HL-60 > 100 µM | ACHN > 100 µM | MDA-MB-231 > 100 µM | HOP-62 > 100 µM

N#CC(C#N)/N=C/c1ccncc1
inactive: HOP-92 > 100 µM | IGROV-1 > 100 µM | UACC-62 > 100 µM | LOX IMVI > 100 µM | OVCAR-4 > 100 µM | COLO 205 > 100 µM | NCI-H23 > 100 µM | M14 > 100 µM | NCI-H226 > 100 µM | SK-MEL-28 > 100 µM | U-251 > 100 µM | SK-MEL-5 > 100 µM | MDA-MB-435 > 100 µM | SF-295 > 100 µM | HL-60 39 µM | ACHN > 100 µM | MDA-MB-231 > 100 µM | SNB-75 > 100 µM | HOP-62 > 100 µM

O=c1[nH]c(=O)n(C2OC(CO)C(O)C2O)c2ccsc12 (configuration not stated)
inactive: HOP-92 > 100 µM | IGROV-1 > 100 µM | UO-31 > 100 µM | LOX IMVI > 100 µM | OVCAR-4 > 100 µM | COLO 205 > 100 µM | NCI-H23 > 100 µM | M14 > 100 µM | NCI-H226 > 100 µM | SK-MEL-28 > 100 µM | U-251 > 100 µM | SK-MEL-5 > 100 µM | MDA-MB-435 > 100 µM | SF-295 > 100 µM | HL-60 > 100 µM | ACHN > 100 µM | MDA-MB-231 > 100 µM | SNB-75 > 100 µM | HOP-62 > 100 µM

CC(=O)O[C@H]1CC[C@@H](OC(C)=O)[C@H]2[C@H](O)[C@H](O)[C@@H]1n1c(=O)n(-c3ccccc3)c(=O)n12
inactive: HOP-92 > 100 µM | IGROV-1 > 100 µM | UACC-62 > 100 µM | UO-31 > 100 µM | LOX IMVI > 100 µM | OVCAR-4 > 100 µM | COLO 205 > 100 µM | NCI-H23 > 100 µM | M14 > 100 µM | NCI-H226 > 100 µM | SK-MEL-28 > 100 µM | U-251 > 100 µM | SK-MEL-5 > 100 µM | MDA-MB-435 > 100 µM | SF-295 > 100 µM | HL-60 > 100 µM | ACHN > 100 µM | MDA-MB-231 > 100 µM | HOP-62 > 100 µM

C#C[C@]1(O)CC[C@H]2[C@@H]3CCC4=C/C(=N/CCOC(=O)c5cccc6c(=O)c7ccccc7[nH]c56)CC[C@@H]4[C@H]3CC[C@@]21C
inactive: HOP-92 23.1 µM | IGROV-1 29.5 µM | UACC-62 36.8 µM | UO-31 37.8 µM | LOX IMVI 28.3 µM | OVCAR-4 32.7 µM | COLO 205 37.1 µM | NCI-H23 32.7 µM | M14 41.7 µM | NCI-H226 76.2 µM | SK-MEL-28 47.6 µM | U-251 16.4 µM | SK-MEL-5 28 µM | MDA-MB-435 31.8 µM | SF-295 23 µM | HL-60 23.1 µM | ACHN 40.4 µM | MDA-MB-231 15.7 µM | HOP-62 37.2 µM

CC(=O)O[C@H]1[C@@H](N2CCCCC2)C[C@H]2[C@@H]3CC=C4C[C@@H](N5CCCC5)CC[C@]4(C)[C@H]3CC[C@@]21C
inactive: HOP-92 91.8 µM | IGROV-1 > 100 µM | UACC-62 > 100 µM | UO-31 > 100 µM | LOX IMVI 35.6 µM | OVCAR-4 > 100 µM | COLO 205 > 100 µM | NCI-H23 > 100 µM | M14 19.2 µM | NCI-H226 > 100 µM | SK-MEL-28 22 µM | U-251 69 µM | SK-MEL-5 32.4 µM | MDA-MB-435 28.6 µM | SF-295 67.5 µM | HL-60 24.9 µM | ACHN > 100 µM | MDA-MB-231 > 100 µM | SNB-75 > 100 µM | HOP-62 49.8 µM

Cc1ccc(C(=O)/C=C/N2CCN(c3cccc(C(F)(F)F)c3)CC2)cc1
inactive: HOP-92 27.1 µM | IGROV-1 16.3 µM | UACC-62 19.3 µM | UO-31 17.5 µM | OVCAR-4 43.7 µM | COLO 205 24.3 µM | NCI-H23 16.8 µM | M14 16.9 µM | NCI-H226 16.9 µM | SK-MEL-28 19.7 µM | U-251 16.8 µM | SK-MEL-5 14.9 µM | MDA-MB-435 16.9 µM | SF-295 17.5 µM | HL-60 22.8 µM | ACHN 23.9 µM | MDA-MB-231 14.6 µM | SNB-75 16.9 µM | HOP-62 20.7 µM

COc1ccc(C(OCC2OC(n3cnc4c(=O)n(Cc5ccccc5[N+](=O)[O-])nnc43)C(O)C2O)(c2ccccc2)c2ccc(OC)cc2)cc1 (configuration not stated)
inactive: HOP-92 2.38 µM | IGROV-1 10.9 µM | UACC-62 12.5 µM | UO-31 11.4 µM | LOX IMVI 6.85 µM | OVCAR-4 20.6 µM | COLO 205 6.84 µM | NCI-H23 13.4 µM | M14 8.51 µM | NCI-H226 5.92 µM | SK-MEL-28 16.7 µM | U-251 11 µM | SK-MEL-5 9.31 µM | MDA-MB-435 10.4 µM | SF-295 5.97 µM | HL-60 2.18 µM | ACHN 14 µM | MDA-MB-231 14.1 µM | SNB-75 45.7 µM | HOP-62 21.6 µM

O=C1C=C(c2ccccc2)O/C1=C/C(=O)c1ccc(Cl)cc1
inactive: HOP-92 19.2 µM | IGROV-1 18.3 µM | UACC-62 14 µM | UO-31 23.3 µM | LOX IMVI 13.3 µM | OVCAR-4 15.6 µM | COLO 205 16.1 µM | NCI-H23 > 10 µM | M14 19 µM | NCI-H226 > 10 µM | SK-MEL-28 18 µM | U-251 15.7 µM | SK-MEL-5 16.7 µM | MDA-MB-435 15.2 µM | HL-60 1.66 µM | ACHN 16.6 µM | MDA-MB-231 17.2 µM | SNB-75 10.6 µM | HOP-62 30.5 µM

CCN(CC)CC(O)C1CCC(c2ccccc2)CC1 (configuration not stated)
inactive: HOP-92 18.6 µM | IGROV-1 35.2 µM | UACC-62 15.6 µM | UO-31 14.8 µM | LOX IMVI 17.4 µM | COLO 205 12.8 µM | NCI-H23 30.4 µM | M14 25.1 µM | NCI-H226 15.8 µM | SK-MEL-28 25.6 µM | U-251 19.8 µM | SK-MEL-5 13.7 µM | MDA-MB-435 17.1 µM | SF-295 17.1 µM | HL-60 28.9 µM | ACHN 18 µM | MDA-MB-231 17.1 µM | SNB-75 23.7 µM | HOP-62 30.9 µM

Cc1ccc(/N=N/c2cc(=O)[nH]c(=O)[nH]2)cc1C
inactive: HOP-92 16.4 µM | IGROV-1 13.9 µM | UO-31 17.9 µM | LOX IMVI 1.71 µM | OVCAR-4 13.9 µM | COLO 205 7.76 µM | M14 14.2 µM | NCI-H226 19.1 µM | SK-MEL-28 15.6 µM | U-251 15.2 µM | SK-MEL-5 15.8 µM | MDA-MB-435 11.2 µM | SF-295 15.3 µM | HL-60 3.01 µM | ACHN 11 µM | MDA-MB-231 11.9 µM | SNB-75 3.9 µM | HOP-62 17.7 µM

CCN(CC)CCNc1ccc2ncn3c4c(OC)ccc(O)c4c(=O)c1c23
inactive: HOP-92 2.74 µM | IGROV-1 5.56 µM | UACC-62 35.7 µM | UO-31 33.7 µM | OVCAR-4 6.21 µM | COLO 205 5.87 µM | NCI-H23 21.8 µM | M14 13.6 µM | NCI-H226 45.8 µM | SK-MEL-28 12.3 µM | U-251 12.6 µM | SK-MEL-5 9.51 µM | MDA-MB-435 24.9 µM | SF-295 16.6 µM | HL-60 30.8 µM | ACHN 5.94 µM | MDA-MB-231 13.7 µM | SNB-75 46.3 µM | HOP-62 15.4 µM
